Experimental data reported in patent publication US20070185128A1, “Compounds and compositions for treating obesity” (priority 2002, published 2007).

Test system: schedule fed male SPRD rat
Assay: Assay (I): efficacy on appetite, schedule-fed rat model, food intake (diet consumed)
Format: in vivo
Conditions: for Diet Consumed 1 hr (mean X of 8 rats): 1 hr after dosing; for Diet Consumed 2 hr (mean X of 8 rats): cumulative at 2 hr after dosing; for Diet Consumed 3 hr (mean X of 8 rats): cumulative at 3 hr after dosing
Protocol: FIG. 1: Effect on food intake in schedule fed (8 h-13 h) male SPRD rat model as described in assay 1. The rats are dosed ip at 08.00 h with vehicle, sibutramine (3 mg/kg) and (S,S)-6-(4-amino-butyl)-1-biphenyl-4-ylmethyl-3-naphthalen-2-ylmethyl-piperazine-2,5-dione (example 11) (1, 3 or 10 mg/kg). Rat chow and water is available from just post dosing, and food intake is measured every hour from dosing to 3 hours post dosing.
The bars indicate the cumulated food intake over time.
Assay (I) Experimental Protocol for Efficacy Testing on Appetite with MC4 Analogues, Using a Schedule—Fed Rat Model.
TAC:SPRD @mol rats or Wistar rats from M&B Breeding and Research Centre A/S, Denmark are used for the experiments. The rats have a bodyweight 200-250 g at the start of experiment. The rats arrive at least 10-14 days before start of experiment with a bodyweight of 180-200 g. Each dose of compound is tested in a group of 8 rats. A vehicle group of 8 rats is included in each set of testing.
When the animals arrive they are housed individually. After a habituating period of 4-7 days with free access to food and water, the schedule feeding is initiated. The rats are allowed to eat from 08 am to 01 pm each day. In the remaining period only access to water is allowed. They are kept on this feeding schedule for 8 days before start of experiment. In this period the animals are handled and dosed in the relevant way (ip, po, sc.) with saline at least 3 times. The experiment is conducted in the rat home cages. Immediately before dosing the rats are randomised to the different treatment groups (n=8) by bodyweight. They are dosed according to bodyweight at 08 am, with a 1 ml/kg solution either, ip, po or sc. The dosing time is recorded for each group. Following dosing the rats are returned to their home cages, where they now have access to food and water. The food consumption is recorded individually, each hour for 3 hours. At the end of the experimental session, the animals are euthanised.
The individual data are recorded in Microsoft excel sheets. Outliers are excluded after using the Grubbs statistical evaluation test for outliers and the result presented graphically by using the GraphPad Prism program.

| SMILES | Diet Consumed 1 hr (mean X of 8 rats) (1 mg/kg i.p.) [Grams] | Diet Consumed 2 hr (mean X of 8 rats) (1 mg/kg i.p.) [Grams] | Diet Consumed 3 hr (mean X of 8 rats) (1 mg/kg i.p.) [Grams] | Diet Consumed 1 hr (mean X of 8 rats) (3 mg/kg i.p.) [Grams] | Diet Consumed 2 hr (mean X of 8 rats) (3 mg/kg i.p.) [Grams] | Diet Consumed 3 hr (mean X of 8 rats) (3 mg/kg i.p.) [Grams] | Diet Consumed 1 hr (mean X of 8 rats) (10 mg/kg i.p.) [Grams] | Diet Consumed 2 hr (mean X of 8 rats) (10 mg/kg i.p.) [Grams] | Diet Consumed 3 hr (mean X of 8 rats) (10 mg/kg i.p.) [Grams] |
| --- | --- | --- | --- | --- | --- | --- | --- | --- | --- |
| NCCCC[C@H]1C(=O)N[C@@H](Cc2ccc3ccccc3c2)C(=O)N1Cc1ccc(-c2ccccc2)cc1 [Example 23, (S,S)-6-(4-Amino-butyl)-1-biphenyl-4-ylmethyl-3-naphthalen-2-ylmethyl-piperazine-2,5-dione] | 2.4 | 6.3 | 8.4 | 3.4 | 7.1 | 8.5 | 2.7 | 5.4 | 6.3 |
| CC(C)CC(N(C)C)C1(c2ccc(Cl)cc2)CCC1 (stereo not drawn) [Sibutramine, reference compound] |  |  |  | 3.5 | 7.0 | 9.4 |  |  |  |
